Assay results reported in article PMC2810234, “Lyngbyastatins 8–10, Elastase Inhibitors with Cyclic Depsipeptide Scaffolds Isolated from the Marine Cyanobacterium Lyngbya semiplena” (Marine Drugs, 2009).

Target: T1, porcine pancreatic elastase (Sus scrofa, UniProt P00772)
T1 construct: purchased EPC (Elastin Products Company) EC134
Assay: Inhibition of porcine pancreatic elastase
Type: biochemical
Conditions: elastase stock 75 μg/mL (5 μL), Tris-HCl pH 8.0; compound 1 μL in DMSO; preincubated 15 min at room temperature; substrate 2 mM N-succinyl-Ala-Ala-Ala-p-nitroanilide solution (15 μL); absorbance 405 nm every 30 s, initial slope vs uninhibited; triplicate
Description: A stock solution of porcine pancreatic elastase (Elastase-high purity; EPC, EC134) was prepared at a concentration of 75 μg/mL in Tris-HCl (pH 8.0). Aliquots of test compounds (1 μL, DMSO) were preincubated with 79 μL Tris-HCl (pH 8.0) and 5 μL elastase stock for 15 min at room temperature in a microtiter plate. After this time, 15 μL substrate solution was added (2 mM N-succinyl-Ala-Ala-Ala-p-nitroanilide in Tris-HCl, pH 8.0) to each well, and the reaction was followed by measuring the absorbance at 405 nm every 30 s. Enzyme activity was determined by calculating the initial slope of each progress curve, expressed as a percentage of the slope of the uninhibited reaction.

T1 sequence (P00772 27-266): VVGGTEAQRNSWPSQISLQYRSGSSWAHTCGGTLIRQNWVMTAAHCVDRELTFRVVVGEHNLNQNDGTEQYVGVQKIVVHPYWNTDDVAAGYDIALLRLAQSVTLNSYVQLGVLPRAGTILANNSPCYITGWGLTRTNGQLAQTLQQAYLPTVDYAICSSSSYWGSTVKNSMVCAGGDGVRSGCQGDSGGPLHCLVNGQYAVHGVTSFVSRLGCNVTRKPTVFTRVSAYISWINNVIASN

Structure (SMILES)	IC50
C/C=C1\NC(=O)[C@@H](NC(=O)[C@@H](NC(=O)[C@H](C)NC(C)=O)C(C)C)[C@@H](C)OC(=O)[C@H](C(C)C)NC(=O)[C@H](Cc2ccc(O)cc2)N(C)C(=O)[C@H](Cc2ccccc2)N2C(=O)[C@H](CC[C@H]2O)NC1=O [Compound 1, Lyngbyastatin 8]	123 ± 2 nM
C/C=C1\NC(=O)[C@@H](NC(=O)[C@@H](NC(=O)[C@H](C)NC(=O)CCC)C(C)C)[C@@H](C)OC(=O)[C@H](C(C)C)NC(=O)[C@H](Cc2ccc(O)c(Br)c2)N(C)C(=O)[C@H](Cc2ccccc2)N2C(=O)[C@H](CC[C@H]2O)NC1=O [Compound 3, Lyngbyastatin 10]	120 ± 16 nM
C/C=C1\NC(=O)[C@@H](NC(=O)[C@@H](NC(=O)[C@H](C)NC(=O)CCC)C(C)C)[C@@H](C)OC(=O)[C@H](C(C)C)NC(=O)[C@H](Cc2ccc(O)cc2)N(C)C(=O)[C@H](Cc2ccccc2)N2C(=O)[C@H](CC[C@H]2O)NC1=O [Compound 2, Lyngbyastatin 9]	210 ± 10 nM
